# Starred links: 1 amine or outer side, 2 acyl side, 3 side chain; linkers in the order of their positions; H or OH if unused. Positions of bridges follow the written chain, without caps; N, C: chain ends. Residues, ends and D or L forms follow the SMILES beside them. *: point of attachment. C20 diacid = O=C(O)CCCCCCCCCCCCCCCCCCC(=O)*; C18 diacid = O=C(O)CCCCCCCCCCCCCCCCC(=O)*; γGlu = O=C(O)[C@H](CCC(=O)[*:2])N[*:1]
# Key:
# [1] = target: T1, human amylin receptor (amylin 3(a) receptor: human calcitonin receptor + RAMP-3) (Homo sapiens, UniProt O60896+P30988); test: Assay (II)a functional CRE-luciferase assay, human amylin receptor; format: cell-based; settings: Table 2; BHK amylin 3(a)-receptor/CRE-luc cells
# T1 construct: expressed in transfected cells; host or cells: BHK570
# T1 sequence (P30988 25-474): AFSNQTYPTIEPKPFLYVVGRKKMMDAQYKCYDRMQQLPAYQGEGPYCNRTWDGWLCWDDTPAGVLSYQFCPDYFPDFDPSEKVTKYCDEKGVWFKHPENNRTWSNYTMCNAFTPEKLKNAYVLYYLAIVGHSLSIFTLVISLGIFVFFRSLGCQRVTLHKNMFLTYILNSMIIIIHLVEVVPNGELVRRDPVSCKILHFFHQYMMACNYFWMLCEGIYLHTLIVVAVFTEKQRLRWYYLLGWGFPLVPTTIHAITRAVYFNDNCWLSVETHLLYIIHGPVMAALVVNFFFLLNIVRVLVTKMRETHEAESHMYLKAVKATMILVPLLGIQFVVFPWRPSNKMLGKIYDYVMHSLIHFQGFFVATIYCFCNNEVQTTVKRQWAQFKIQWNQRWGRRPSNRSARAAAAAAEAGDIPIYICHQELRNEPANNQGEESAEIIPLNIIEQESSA
# T1 sequence (O60896 24-148 partner): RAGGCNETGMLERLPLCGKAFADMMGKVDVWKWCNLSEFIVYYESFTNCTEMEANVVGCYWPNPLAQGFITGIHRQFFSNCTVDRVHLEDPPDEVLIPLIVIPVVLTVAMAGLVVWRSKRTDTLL
# [2] = Assay (III) ThT fibrillation assay for physical stability; format: physicochemical
# Procedure, shortened: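 Freshly prepared formulations, pH-adjusted, with 1 μM ThT; four or eight replicates incubated at 37 °C under 960 rpm orbital shaking. Fluorescence (ex 444/em 485 nm) read every 20 min; […]. Peptide concentration measured by RP-HPLC before and after the run.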
EC50 [1],ThT pH 4.0 lag time ([2]; ThT fibrillation assay),ThT pH 4.0 lag time (h) ([2]; ThT fibrillation assay),ThT pH 4.0 lag time ([2]; Table 8),ThT pH 4.0 lag time ([2]; Table 9),SMILES
0.101 nM,>45 h,>45 h,,,"CC[C@H](C)[C@H](NC(=O)[C@@H]1CCCN1C(=O)CNC(=O)[C@H](Cc1ccccc1)NC(=O)[C@H](CC(N)=O)NC(=O)[C@H](CC(N)=O)NC(=O)[C@H](CO)NC(=O)[C@H](CO)NC(=O)[C@H](Cc1c[nH]cn1)NC(=O)[C@H](CCCNC(=N)N)NC(=O)[C@H](CC(C)C)NC(=O)[C@H](Cc1ccccc1)NC(=O)[C@H](CCC(=O)O)NC(=O)[C@H](C)NC(=O)[C@H](CC(C)C)NC(=O)[C@H](CCCNC(=N)N)NC(=O)[C@H](CCC(N)=O)NC(=O)[C@@H](NC(=O)[C@H](C)NC(=O)[C@@H]1CSSC[C@H](NC(=O)[C@H](CCCCN)NC(=O)CC[C@H](NC(=O)CCCCCCCCCCCCCCCCCCC(=O)O)C(=O)O)C(=O)N[C@@H](CC(N)=O)C(=O)N[C@@H]([C@@H](C)O)C(=O)N[C@@H](C)C(=O)N[C@@H]([C@@H](C)O)C(=O)N1)[C@@H](C)O)C(=O)N[C@@H](CC(C)C)C(=O)N1CCC[C@H]1C(=O)N1CCC[C@H]1C(=O)N[C@H](C(=O)N[C@@H](CC(N)=O)C(=O)N[C@H](C(=O)NCC(=O)N[C@@H](CO)C(=O)N[C@@H](CC(N)=O)C(=O)N[C@H](C(=O)N[C@@H](Cc1ccc(O)cc1)C(N)=O)[C@@H](C)O)C(C)C)[C@@H](C)O [Example 50, N-alpha-[(S)-4-Carboxy-4-(19-carboxynonadecanoylamino)butyryl]-[Glu14,Arg17]-pramlintide] ({C20 diacid-γGlu}-KCNTATCATQRLAEFLRHSSNNFGPILPPTNVGSNTY-NH2; disulfide 2-7 (inferred))"
0.043 nM,>45 h,>45 h,>45 h,>45 h,"CC[C@H](C)[C@H](NC(=O)[C@@H]1CCCN1C(=O)CNC(=O)[C@H](Cc1ccccc1)NC(=O)[C@H](CC(N)=O)NC(=O)[C@H](CC(N)=O)NC(=O)[C@H](CO)NC(=O)[C@H](CO)NC(=O)[C@H](Cc1c[nH]cn1)NC(=O)[C@H](Cc1c[nH]cn1)NC(=O)[C@H](CC(C)C)NC(=O)[C@H](Cc1ccccc1)NC(=O)[C@H](CCC(=O)O)NC(=O)[C@H](C)NC(=O)[C@H](CC(C)C)NC(=O)[C@H](CCCNC(=N)N)NC(=O)[C@H](CCC(N)=O)NC(=O)[C@@H](NC(=O)[C@H](C)NC(=O)[C@@H]1CSSC[C@H](NC(=O)[C@H](CCCNC(=N)N)NC(=O)CC[C@H](NC(=O)CCCCCCCCCCCCCCCCCCC(=O)O)C(=O)O)C(=O)N[C@@H](CC(N)=O)C(=O)N[C@@H]([C@@H](C)O)C(=O)N[C@@H](C)C(=O)N[C@@H]([C@@H](C)O)C(=O)N1)[C@@H](C)O)C(=O)N[C@@H](CC(C)C)C(=O)N1CCC[C@H]1C(=O)N1CCC[C@H]1C(=O)N[C@H](C(=O)N[C@@H](CC(N)=O)C(=O)N[C@H](C(=O)NCC(=O)N[C@@H](CO)C(=O)N[C@@H](CC(N)=O)C(=O)N[C@H](C(=O)N1CCC[C@H]1C(N)=O)[C@@H](C)O)C(C)C)[C@@H](C)O [Example 96, N-alpha-[(S)-4-Carboxy-4-(19-carboxynonadecanoylamino)butyryl]-[Arg1,Glu14,His17,Pro37]-pramlintide] ({C20 diacid-γGlu}-RCNTATCATQRLAEFLHHSSNNFGPILPPTNVGSNTP-NH2; disulfide 2-7 (inferred))"
0.0425 nM,,9 h,,,"CC[C@H](C)[C@H](NC(=O)[C@@H]1CCCN1C(=O)CNC(=O)[C@H](Cc1ccccc1)NC(=O)[C@H](CC(N)=O)NC(=O)[C@H](CC(N)=O)NC(=O)[C@H](CO)NC(=O)[C@H](CO)NC(=O)[C@H](Cc1c[nH]cn1)NC(=O)[C@H](Cc1c[nH]cn1)NC(=O)[C@H](CC(C)C)NC(=O)[C@H](Cc1ccccc1)NC(=O)[C@H](CCC(=O)O)NC(=O)[C@H](C)NC(=O)[C@H](CC(C)C)NC(=O)[C@H](CCCNC(=N)N)NC(=O)[C@H](CCC(N)=O)NC(=O)[C@@H](NC(=O)[C@H](C)NC(=O)[C@@H]1CSSC[C@H](NC(=O)[C@H](Cc2c[nH]cn2)NC(=O)CC[C@H](NC(=O)CCCCCCCCCCCCCCCCC(=O)O)C(=O)O)C(=O)N[C@@H](CC(N)=O)C(=O)N[C@@H]([C@@H](C)O)C(=O)N[C@@H](C)C(=O)N[C@@H]([C@@H](C)O)C(=O)N1)[C@@H](C)O)C(=O)N[C@@H](CC(C)C)C(=O)N1CCC[C@H]1C(=O)N1CCC[C@H]1C(=O)N[C@H](C(=O)N[C@@H](CC(N)=O)C(=O)N[C@H](C(=O)NCC(=O)N[C@@H](CO)C(=O)N[C@@H](CC(N)=O)C(=O)N[C@H](C(=O)N[C@@H](Cc1ccc(O)cc1)C(N)=O)[C@@H](C)O)C(C)C)[C@@H](C)O [Example 48, N-alpha-[(S)-4-Carboxy-4-(17-carboxyheptadecanoylamino)butyryl]-[His1,Glu14,His17]-pramlintide] ({C18 diacid-γGlu}-HCNTATCATQRLAEFLHHSSNNFGPILPPTNVGSNTY-NH2; disulfide 2-7 (inferred))"
,>45 h,>45 h,>45 h,>45 h,"CC[C@H](C)[C@H](NC(=O)[C@@H]1CCCN1C(=O)CNC(=O)[C@H](Cc1ccccc1)NC(=O)[C@H](CC(N)=O)NC(=O)[C@H](CC(N)=O)NC(=O)[C@H](CO)NC(=O)[C@H](CO)NC(=O)[C@H](Cc1c[nH]cn1)NC(=O)[C@H](CCCNC(=N)N)NC(=O)[C@H](CC(C)C)NC(=O)[C@H](Cc1ccccc1)NC(=O)[C@H](CCC(=O)O)NC(=O)[C@H](C)NC(=O)[C@H](CC(C)C)NC(=O)[C@H](CCCNC(=N)N)NC(=O)[C@H](CCC(N)=O)NC(=O)[C@@H](NC(=O)[C@H](C)NC(=O)[C@@H]1CSSC[C@H](NC(=O)[C@H](CCCCN)NC(=O)CC[C@H](NC(=O)CCCCCCCCCCCCCCCCCCC(=O)O)C(=O)O)C(=O)N[C@@H](CC(N)=O)C(=O)N[C@@H]([C@@H](C)O)C(=O)N[C@@H](C)C(=O)N[C@@H]([C@@H](C)O)C(=O)N1)[C@@H](C)O)C(=O)N[C@@H](CC(C)C)C(=O)N1CCC[C@H]1C(=O)N1CCC[C@H]1C(=O)N[C@H](C(=O)N[C@@H](CC(N)=O)C(=O)N[C@H](C(=O)NCC(=O)N[C@@H](CO)C(=O)N[C@@H](CC(N)=O)C(=O)N[C@H](C(=O)N1CCC[C@H]1C(N)=O)[C@@H](C)O)C(C)C)[C@@H](C)O [Example 53, N-alpha-[(S)-4-Carboxy-4-(19-carboxynonadecanoylamino)butyryl]-[Glu14,Arg17,Pro37]-pramlintide]"
0.0823 nM,,,,,"CC[C@H](C)[C@H](NC(=O)[C@@H]1CCCN1C(=O)CNC(=O)[C@H](Cc1ccccc1)NC(=O)[C@H](CC(N)=O)NC(=O)[C@H](CC(N)=O)NC(=O)[C@H](CO)NC(=O)[C@H](CO)NC(=O)[C@H](CCCNC(=N)N)NC(=O)[C@H](Cc1c[nH]cn1)NC(=O)[C@H](CC(C)C)NC(=O)[C@H](Cc1ccccc1)NC(=O)[C@H](CCC(=O)O)NC(=O)[C@H](C)NC(=O)[C@H](CC(C)C)NC(=O)[C@H](CCCNC(=N)N)NC(=O)[C@H](CCC(N)=O)NC(=O)[C@@H](NC(=O)[C@H](C)NC(=O)[C@@H]1CSSC[C@H](NC(=O)[C@H](CCC(=O)O)NC(=O)CC[C@H](NC(=O)CCCCCCCCCCCCCCCCCCC(=O)O)C(=O)O)C(=O)N[C@@H](CC(N)=O)C(=O)N[C@@H]([C@@H](C)O)C(=O)N[C@@H](C)C(=O)N[C@@H]([C@@H](C)O)C(=O)N1)[C@@H](C)O)C(=O)N[C@@H](CC(C)C)C(=O)N1CCC[C@H]1C(=O)N1CCC[C@H]1C(=O)N[C@H](C(=O)N[C@@H](CC(N)=O)C(=O)N[C@H](C(=O)NCC(=O)N[C@@H](CO)C(=O)N[C@@H](CC(N)=O)C(=O)N[C@H](C(=O)N1CCC[C@H]1C(N)=O)[C@@H](C)O)C(C)C)[C@@H](C)O [Example 10, N-alpha-[(S)-4-Carboxy-4-(19-carboxynonadecanoylamino)butyryl]-[Glu1,Glu14,His17,Arg18,Pro37]-pramlintide] ({C20 diacid-γGlu}-ECNTATCATQRLAEFLHRSSNNFGPILPPTNVGSNTP-NH2; disulfide 2-7)"
0.131 nM,,,,,"CC[C@H](C)[C@H](NC(=O)[C@@H]1CCCN1C(=O)CNC(=O)[C@H](Cc1ccccc1)NC(=O)[C@H](CC(N)=O)NC(=O)[C@H](CC(N)=O)NC(=O)[C@H](CO)NC(=O)[C@H](CO)NC(=O)[C@H](Cc1c[nH]cn1)NC(=O)[C@H](Cc1c[nH]cn1)NC(=O)[C@H](CC(C)C)NC(=O)[C@H](Cc1ccccc1)NC(=O)[C@H](CCC(=O)O)NC(=O)[C@H](C)NC(=O)[C@H](CC(C)C)NC(=O)[C@H](CCCNC(=N)N)NC(=O)[C@H](CCC(N)=O)NC(=O)[C@@H](NC(=O)[C@H](C)NC(=O)[C@@H]1CSSC[C@H](NC(=O)[C@H](Cc2c[nH]cn2)NC(=O)CC[C@H](NC(=O)CCCCCCCCCCCCCCCCCCC(=O)O)C(=O)O)C(=O)N[C@@H](CC(N)=O)C(=O)N[C@@H]([C@@H](C)O)C(=O)N[C@@H](C)C(=O)N[C@@H]([C@@H](C)O)C(=O)N1)[C@@H](C)O)C(=O)N[C@@H](CC(C)C)C(=O)N1CCC[C@H]1C(=O)N1CCC[C@H]1C(=O)N[C@H](C(=O)N[C@@H](CC(N)=O)C(=O)N[C@H](C(=O)NCC(=O)N[C@@H](CO)C(=O)N[C@@H](CC(N)=O)C(=O)N[C@H](C(=O)N[C@@H](Cc1ccc(O)cc1)C(N)=O)[C@@H](C)O)C(C)C)[C@@H](C)O [Example 18, N-alpha-[(S)-4-Carboxy-4-(19-carboxynonadecanoylamino)butyryl]-[His1,Glu14,His17]-pramlintide] ({C20 diacid-γGlu}-HCNTATCATQRLAEFLHHSSNNFGPILPPTNVGSNTY-NH2; disulfide 2-7 (inferred); C-terminus assumed)"
